Assay results published in patent publication US11970436B2, “Pharmaceutical compositions comprising monoterpenes” (NEONC Technologies, Inc., priority 2010, dated 2024).

Key:
[1] = test system: intracranial glioma model; experiment: Intracranial glioma model in athymic nu/nu mice, survival; type: in vivo; conditions: mice treated with TMZ; untreated about four weeks
Procedure: Male athymic nu/nu mice (6-8 weeks old) will be employed for this research. Rodent subcutaneous/intracranial glioma model can be established as follows. Six to eight week old athymic nu/nu mice will be anesthesized with intraperitoneal injections of ketamine (80 mg/kg) and xylazine (10 mg/kg). For the intracranial glioma model, the mice are placed into a stereotactic head frame (Harvard Apparatus), and local anesthetic (0.2 cc of 0.25% xylocaine) is injected into the right frontal scalp. A knife blade is used to make a small incision, and a drill bit is used to make a small opening in the right frontal skull at the level of the coronal suture. Glioma cells (1×10^5 cells/10 μl), for example, U-87 human glioma cells, will be loaded into a calibrated Hamilton syringe. The needle tip will be placed precisely into the right frontal lobe of the […], and cells will be slowly injected using a control push from the Hamilton syringe. After the injection is finished, the syringe and needle will be removed, and the wound closed.
Brains will be harvested, and tumor size determined. Survival curves will be constructed by following the mice until they develop neurological deficits. Our experience has been that survival is about four weeks after implantation for untreated mice, and up to 8 weeks for mice treated with TMZ.

[2] = test system: CCAAT/enhancer binding protein (CHOP); experiment: Western blot apoptosis marker CHOP; type: cell-based, human; conditions: 20 hours
Procedure: (§1) The treatments for different lanes of the Western blot are as follows: 1: No treatment; 2: 0.5 mM purified POH; 3: 1.5 mM purified POH; 4: 0.5 mM Sigma POH; 5: 1.5 mM Sigma POH; 6: 0.5 mM Wako POH; 7: 1.5 mM Wako POH; 8: Positive Control (DMC 40uM). Sigma POH is the POH purchased from Sigma Chemicals. Wako POH is the POH purchased from […]. Cells were treated with different agents or mock treated for 20 hours before being lysed.
(§2) Sigma POH is the POH purchased from Sigma Chemicals.
(§3) GRP78 is an anti-apoptotic protein the level of which is increased in response to stress. CHOP is a proapoptotic protein signaling for apoptosis. Pyrko et al. The unfolded protein response regulator GRP78/BiP as a novel target for increasing chemosensitivity in malignant gliomas. Cancer Research 67(20):9809-16, 2007.
(§4) U251 TMZ-sensitive and TMZ-resistant (U251/TR1, U251/TR2) cells were treated with Sigma POH (1.5 mM) or purified POH (1.5 mM) for 20 hours, then Western blot was performed.

[3] = test system: H-Ras; experiment: H-ras production in glioblastoma cancer stem cells; type: cell-based, human; conditions: USC-02 and USC-04, POH for 24 hours
Procedure: Two glioblastoma cancer stem cell lines (USC-02, USC-04) were treated by POH for 24 hours. USC-02 and USC-04 are two independent primary cancer stem cell lines isolated from glioblastoma tissue from two different patients.

[4] = test system: cell lines that were TMZ resistant; experiment: Cytotoxicity assay, POH combined with TMZ, resistant lines; type: cell-based; conditions: POH and TMZ
Procedure: (§5) Cytotoxicity assays were carried out after cells were treated with POH in combination with temozolomide (TMZ), the standard alkylating agent used in the treatment of malignant gliomas. […] This effect was also seen in cell lines that were TMZ resistant.

[5] = test system: glucose-regulated protein 78 (GRP78); experiment: Western blot ER stress marker GRP78; type: cell-based, human; conditions: 20 hours
Procedure: as §1, §2, §3, §4

[6] = test system: U251, LN229 and U87 human glioma cells; experiment: MTT cytotoxicity assay, POH combined with DMC; type: cell-based; conditions: MTT and colony formation assays, FIG. 5A
Excerpt: (§6) Pyrko et al. HIV-1 protease inhibitors nelfinavir and atazanavir induce malignant glioma death by triggering endoplasmic reticulum stress. Cancer Res 67(22): 10920-10928, 2007.

[7] = test system: U251 human glioma cells; experiment: MTT cytotoxicity assay, POH combined with TMZ; type: cell-based; conditions: POH and TMZ, FIG. 5C
Procedure: as §5

[8] = test system: glioblastoma cancer stem cells (USC04); experiment: Sphere formation assay (SFA); type: cell-based, human; conditions: POH 0-1.5 mM for 6 days
Procedure: USC04 cells were incubated with varying concentrations of POH (0-1.5 mM) for 6 days.

[9] = test system: recurrent malignant gliomas; conditions: intranasal delivery, patients with recurrent malignant gliomas; cited from earlier work
[10] = test system: glioma; experiment: Boyden matrigel chamber invasion; type: cell-based
[11] = test system: U251 human glioma cells; experiment: MTT cytotoxicity assay, POH combined with Nelfinavir; type: cell-based; conditions: FIG. 5B
Excerpt: as §6

[12] = test system: glioma tumor cells (U251 cells); experiment: MTT cytotoxicity assay, glioma cells versus normal brain cells; type: cell-based, human; conditions: FIG. 14
Excerpt: (§7) Verapamil is used as an inhibitor of drug efflux pump proteins such as P-glycoprotein.

[13] = test system: glioblastoma cancer stem cell line USC-02; experiment: MTT assay on glioblastoma cancer stem cells USC-02; type: cell-based, human
Excerpt: as §7

[14] = oral, cited from earlier work
[15] = test system: interleukin 8 (IL8); experiment: ELISA for IL-8 secretion; type: cell-based; conditions: U87 human glioma cells, POH for 48 hours
Procedure: (§8) ELISA was performed after cells were treated with POH for 48 hours.
(§9) Pyrko et al. The unfolded protein response regulator GRP78/BiP as a novel target for increasing chemosensitivity in malignant gliomas. Cancer Res 67(20):9809-16, 2007. […] In addition, it may overcome the immunosuppressive functions of transforming growth factor beta-2 (TGFβ-2) secreted by glioma cells.

[16] = test system: VEGF; experiment: ELISA for VEGF secretion; type: cell-based; conditions: U87 human glioma cells, POH for 48 hours
Procedure: as §8, §9

[17] = test system: cancer stem cells USC-04; experiment: MTT cytotoxicity assay on cancer stem cells USC-04; type: cell-based; conditions: Homo sapiens
Excerpt: as §7

[18] = test system: normal stem cells mSVZ (mouse SVZ stem cells), brain endothelial cells (BECs) and astrocytes; experiment: Comparison of POH IC50 values, normal cells; type: cell-based; conditions: FIG. 18, normal cells
[19] = test system: glioma cells; experiment: Apoptosis / cell killing by rolipram with or without POH; type: cell-based
Procedure: When cells were treated with rolipram alone, apoptosis occurred only after 48 hours post the addition of high concentrations of rolipram (e.g., 1 mM). Synergistic cell killing by rolipram and POH occurred within a much shorter time period, i.e., 6 hours after the addition of the drugs. Chen et al. The type IV phosphodiesterase inhibitor rolipram induces expression of the cell cycle inhibitors p21 Cip 1 and p27Kip1, resulting in growth inhibition, increased differentiation, and subsequent apoptosis of malignant A-12 glioma cells. Cancer Biology & Therapy, Vol. 1:3, 268-276, 2003.

[20] = test system: brain endothelial cells (BECs); experiment: Transepithelial electrical resistance (TEER), in vitro blood brain barrier model; type: cell-based; conditions: 0.03% POH for 20 hours, compared to medium only, 0.01% and 0.02% POH
Procedure: In these experiments, brain endothelial cells (BECs) were used as an in vitro model of blood brain barrier. The increase in TEER in each group over time corresponds to increased confluency of the cells in culture. TEER decreased when cells were treated by 0.03% POH for 20 hours compared to medium only, 0.01% POH treatment, and 0.02% POH treatment.
Transepithelial electrical resistance (TEER) assays were performed assessing the ability of POH to increase paracellular permeability (FIG. 7A). In these experiments, brain endothelial cells (BECs) were used as an in vitro blood brain barrier model. […] TEER decreased when cells were treated by 0.03% POH for 20 hours compared to medium only, 0.01% POH treatment, and 0.02% POH treatment. The increase in TEER in each group over time corresponds to increased confluency of the cells in culture.

[21] = test system: H-Ras; experiment: Western blot H-Ras expression; type: cell-based, human; conditions: U251 glioma cells, 24 hours
Procedure: (§10) U251 glioma cells were treated with Sigma POH or purified POH for 24 hours, then Western blot was performed.

[22] = test system: K-Ras; experiment: Western blot K-Ras expression; type: cell-based, human; conditions: U251 glioma cells, 24 hours
Procedure: as §10

[23] = test system: U251 temozolomide-resistant cells (U251/TR1 and U251/TR2); type: cell-based, human
Excerpt: (§11) U251/TR1 and U251/TR2 refer to two temozolomide-resistant U251 cell lines.

[24] = test system: U251 human glioma cells (temozolomide-sensitive); type: cell-based
Excerpt: as §11

[25] = test system: U251, U87, LN299 and A172 human glioma cells; type: cell-based
[26] = test system: U251 temozolomide-resistant cells (U251/TR1); experiment: Colony formation assay on temozolomide-resistant U251; type: cell-based, human; conditions: FIG. 3C
[27] = test system: B16-F1 melanoma cells; experiment: Colony formation assay, POH plus radiation; type: cell-based; conditions: FIG. 4B
Procedure: (§12) Cells were treated with 325 μM or 650 μM POH prior to radiation at the doses of 2, 5 or 10 Grays (Gy). […] This was confirmed for another human glioma cell line (U251) and also for a melanoma cell line (B16-F1) (FIG. 4B).

[28] = test system: human A172 glioma cells; experiment: Colony formation assay, POH plus radiation; type: cell-based; conditions: 325 μM or 650 μM POH prior to radiation at 2, 5 or 10 Gy
Procedure: as §12

[29] = test system: U251 human malignant glioma cells; experiment: Colony formation assay, POH plus radiation; type: cell-based; conditions: FIG. 4B
Procedure: as §12

[30] = U251 TMZ-sensitive and TMZ-resistant (U251/TR1, U251/TR2) cells, 1.5 mM

SMILES: Cn1nnc2c(C(N)=O)ncn2c1=O [TMZ, temozolomide]
- survival after implantation [1]: up to 8 weeks

SMILES: C=C(C)[C@@H]1CC=C(CO)CC1 [POH, perillyl alcohol]
- level of CHOP ([2]; U251, U87 and A172 cells): up-regulated
- H-ras production [3]: decreased H-ras production
- cytotoxicity in combination with temozolomide (TMZ) [4]: also seen
- level of GRP78 ([5]; U251, U87 and A172 cells): up-regulated
- cytotoxicity in combination with dimethyl-celecoxib (DMC) [6]: at least additive
- cytotoxicity in combination with temozolomide (TMZ) [7]: at least additive
- number of spheres formed [8]: decreased the number of spheres
- duration of disease remission in several patients [9]: ≤ 3 years
- patients achieving 6 month progression-free period [9]: 50%
- side effects from the treatment [9]: almost non-existent
- glioma invasion [10]: inhibit glioma invasion
- cytotoxicity in combination with Nelfinavir (NFV) [11]: at least additive
- sensitivity of U251 cells to POH relative to brain endothelial cells (BECs) and astrocytes [12]: more sensitive
- POH IC50 compared among cell lines ([13]; FIG. 18, USC-02 cells): most sensitive
- sensitivity of USC-02 to POH relative to U251 cells or normal stem cells (mSVZ) ([13]; MTT, 48 hrs): more sensitive
- anti-cancer efficacy [14]: limited
- tolerability ([14]; mainly gastrointestinal side effects): generally poorly tolerated
- production of interleukin 8 (IL8) by glioma cells [15]: inhibited production
- production of VEGF by glioma cells [16]: inhibited production
- EC50 ([17]; FIG. 15A): 300 µM
- POH IC50 compared among cell lines [18]: most resistant
- time after addition of the drugs at which synergistic cell killing occurred ([19]; rolipram and POH in combination): 6 h
- TEER [20]: decreased

SMILES: Cc1ccc(C)c(-c2cc(C(F)(F)F)nn2-c2ccc(S(N)(=O)=O)cc2)c1 [DMC, dimethyl-celecoxib, reference compound]
- EC50 ([17]; FIG. 15B): 78 µM

SMILES: COc1ccc(C2CNC(=O)C2)cc1OC1CCCC1 (stereo not shown) [rolipram, reference compound]
- time after addition at which apoptosis occurred ([19]; rolipram alone, high concentrations (e.g., 1 mM)): ≥ 48 h

SMILES: C=C(C)[C@@H]1CC=C(CO)CC1 [Sigma POH, (S)-perillyl alcohol]
- H-Ras expression [21]: decreased
- K-Ras expression [22]: decreased

SMILES: C=C(C)[C@@H]1CC=C(CO)CC1 [purified POH, (S)-perillyl alcohol]
- expression of CHOP [2, 30]: increased expression
- cytotoxicity (MTT), cell killing [23]: effective in killing
- expression of GRP-78 [5, 30]: increased expression
- cytotoxicity (MTT), cell killing [24]: effective in killing
- cytotoxicity (MTT), cell killing [25]: efficacy
- colony formation [26]: efficacy
- cytotoxicity in combination with radiation [27]: synergistic cytotoxicity
- cell killing in combination with radiation [28]: synergistically
- cytotoxicity in combination with radiation [29]: synergistic cytotoxicity
